Data published in US20120142646A1, “Novel Compounds 621” (priority 2006, published 2012).

Columns and labels:
[1] = molecular target: T1, recombinant human α1D receptor (Homo sapiens, UniProt P25100); assay: Adrenergic α1D [3H]-prazosin binding, HEK293 membranes; details: inhibition of [3H]-prazosin binding (0.3 nM), read-out: α1 bind pIC50 (converted)
T1 construct: expressed in transfected cells; host or cells: HEK293
T1 sequence (P25100 1-572): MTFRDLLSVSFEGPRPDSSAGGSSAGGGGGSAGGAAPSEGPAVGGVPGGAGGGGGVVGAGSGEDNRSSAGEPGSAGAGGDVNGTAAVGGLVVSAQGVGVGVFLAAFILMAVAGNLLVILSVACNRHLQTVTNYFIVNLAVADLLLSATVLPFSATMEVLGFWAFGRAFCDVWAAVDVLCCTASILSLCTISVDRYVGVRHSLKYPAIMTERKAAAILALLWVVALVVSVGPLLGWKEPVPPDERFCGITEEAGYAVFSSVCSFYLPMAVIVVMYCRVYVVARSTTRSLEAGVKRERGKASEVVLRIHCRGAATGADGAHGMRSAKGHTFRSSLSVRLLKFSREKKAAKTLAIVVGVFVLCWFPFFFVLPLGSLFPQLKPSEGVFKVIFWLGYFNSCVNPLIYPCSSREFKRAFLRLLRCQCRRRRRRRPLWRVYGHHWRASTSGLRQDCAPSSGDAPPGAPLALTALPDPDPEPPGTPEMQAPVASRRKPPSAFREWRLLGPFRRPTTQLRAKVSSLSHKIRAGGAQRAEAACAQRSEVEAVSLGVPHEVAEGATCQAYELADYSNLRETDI
Procedure: Membranes were prepared from human embryonic kidney 293 (HEK293) cells expressing recombinant human α1D receptor. These were diluted in Assay Buffer (50 mM HEPES, 1 mM EDTA, pH 7.4) to provide a final concentration of membranes that gave a clear window between maximum and minimum specific binding.
Assays were performed in U-bottomed 96-well polypropylene plates. 10 μL [^3H]-prazosin (0.3 nM final concentration) and 10 μL of test compound (10× final concentration) were added to each test well. For each assay plate 8 replicates were obtained for [^3H]-prazosin binding in the presence of 10 μL vehicle (10% (v/v) DMSO in Assay Buffer; defining maximum binding) or 10 μL BMY7378 (10 μM final concentration; defining non-specific binding (NSB)). Membranes were then added to achieve a final volume of 100 μL. The plates were incubated for 2 hours at room temperature and then filtered onto PEI coated GF/B filter plates, pre-soaked for 1 hour in Assay Buffer, using a 96-well plate Tomtec cell harvester. Five washes with 250 μL wash buffer (50 mM HEPES, 1 mM EDTA, pH 7.4) were performed at 4° C. to remove unbound radioactivity. […] The plates were sealed (TopSeal A) and filter-bound radioactivity was measured with a scintillation counter (TopCount, Packard BioScience) using a 3-minute counting protocol.
Total specific binding (B0) was determined by subtracting the mean NSB from the mean maximum binding. […]

Adrenergic β2 = molecular target: T2, Adrenergic β2 (Homo sapiens, UniProt P07550); assay: Adrenergic β2 mediated cAMP production in H292 cells (AlphaScreen cAMP detection); assay type: cell-based; set-up: key to β2 Int Act: fraction of formoterol maximum activity (formoterol = 1)
T2 construct: Adherent H292 cells were removed from tissue culture flasks; endogenous in cells; host or cells: H292 cells
How it was run: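 H292 cells pre-treated 10 min with rolipram (300 μM final), then given agonist for 60 min at room temperature in HBSS/10 mM HEPES pH 7.4, 1.6% DMSO final. Lysate cAMP measured by AlphaScreen against a cAMP standard curve. Four-parameter fit gives pEC50; intrinsic activity relative to formoterol maximum.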

T2 sequence (P07550 whole entry): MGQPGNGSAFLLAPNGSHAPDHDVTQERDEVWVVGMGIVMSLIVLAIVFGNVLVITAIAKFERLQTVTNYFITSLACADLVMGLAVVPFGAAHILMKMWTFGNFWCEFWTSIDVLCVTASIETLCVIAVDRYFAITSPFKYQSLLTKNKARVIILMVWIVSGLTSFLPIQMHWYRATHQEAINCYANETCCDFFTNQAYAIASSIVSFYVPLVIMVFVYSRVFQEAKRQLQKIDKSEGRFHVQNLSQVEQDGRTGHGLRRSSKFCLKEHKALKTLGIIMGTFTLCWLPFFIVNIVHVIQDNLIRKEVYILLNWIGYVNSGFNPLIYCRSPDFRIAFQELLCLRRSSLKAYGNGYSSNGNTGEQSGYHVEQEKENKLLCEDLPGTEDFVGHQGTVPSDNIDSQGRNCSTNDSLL

- IC50 [1]: 100 nM
- EC50 (Adrenergic β2; H292 cells, cAMP production, 60 minutes at room temperature, 300 μM rolipram, read-out: β2 pEC50 (converted)): 3.98 nM
- β2 Int Act (Adrenergic β2; Intrinsic Activity as a fraction relative to the maximum activity determined for formoterol): 0.92
SMILES: CCCCC[C@@H](C)N(CCNCCc1ccc(O)c2c1OCC(=O)N2)C(=O)CCNCCc1ccccc1 [Example 60, (R)—N-(Heptan-2-yl)-N-(2-(2-(5-hydroxy-3-oxo-3,4-dihydro-2H-benzo[b][1,4]oxazin-8-yl)ethylamino)ethyl)-3-(phenethylamino)propanamide bis(trifluoroacetate)]
